Key:
[1] = system: human keratinocyte cell line HaCaT cells; test: MTT assay, cytotoxicity in human keratinocyte cell line; format: cell-based
Method: (§1) Firstly, the cytotoxicity is measured by the MTT assay. Phytosphingosine (PS), phytosphingosine-HCl (PS-HCl), C6-phytosphingosine (C6-PS), CLA-phytosphingosine (CLA-PS), tetraacetyl phytosphingosine (TAPS), and N-acetyl phytosphingosine (NAPS) are dissolved into DMSO to have the final concentration of 1-100 μM.
(§2) In order to study the effects of the compositions of the present invention on the cytotoxicity in the human keratinocyte cell line HaCaT cells, the cell viability is analyzed by the MTT (3-[4,5-dimethylthiazol-2-yl]-2,5-diphenyltetrazolium bromide) assay. HaCaT cells are supplied by Professor N. Fuseng of German Cancer Research in Germany. HaCaT cells are seeded in a density of 1×10^6 cells in a […] and cultured in DMEM (Dulbecco's Modified Eagle Medium) containing 10% fetal bovine serum (FBS, GIBCO), 100 units/ml penicillin, and 100 μg/ml streptomycin for 48 hours. They are treated with trypsin and 1-2×10^4 cells per well are seeded again in a 96-well plate by using a serum-free culture medium, about 3 hours after which they are cultured by treatment with phytosphingosine derivatives. After they are cultured for 24 hours, the MTT reagent is added at a concentration of 2 mg/ml, cultured for 4 hours, suspended in DMSO after removing the culture medium completely in order to measure O.D. at 540 nm. C2-ceramide is used for comparison.

[2] = system: A431 cells, human skin cancer cell line; test: MTT assay, cytotoxicity in human skin cancer cell line; format: cell-based
Method: as §1, §2
In order to study the effects of the compositions of the present invention on the cytotoxicity in A431 cells, human skin cancer cell line, the MTT assay is used. The method of cell culture and MTT assay are the same as those in the above method. C2-ceramide is used for comparison.

[3] = system: human umbilical vein endothelial cells (HUVEC); test: MTT assay, cytotoxicity in HUVEC; format: cell-based
Method: as §1, §2
The MTT assay is used for the above purpose. Primary human umbilical vein endothelial cells are cultured from the human umbilical vein. The method of cell culture and the MTT assay are the same as those in the above. C2-ceramide is used for comparison.

[4] = system: immune cells (T cells, B cells, macrophages, monocytes) from spleen of mice; test: MTT assay, cytotoxicity in immune cells separated from spleen of mice; format: cell-based
Method: The effect of the composition of the present invention on the cytotoxicity in immune cells (T cells, B cells, macrophages, monocytes, etc.) was examined. The spleen was removed from normal mice (BDF) and single cells were obtained from the spleen by mechanical aggregation method. And mononuclear cells containing T cells, B cells, macrophages and monocytes were isolated from single cells by density gradient centrifugation method using Ficoll Hypaque. Briefly, single cells were treated with PBS and overlayed on Ficoll Hypaque and centrifuged at 1500 rpm for 30 min. After centrifugation, the cells around the boundary of the Ficoll-Hapaque were collected and washed three times with PBS. The isolated cells were cultured for 24 hours in the presence of 1, 10, 50 and 100 μM of NAPS, TAPS, and PS to examine the effect of cytotoxicity, i.e. the degree of proliferation of the cells. C2-ceramide was used as control. The medium used in this experiment was RPMI 1640 suplemented with 10% of FBS and 100 μg/ml of penicillin and streptomycin.

[5] = system: peripheral blood mononuclear cells (PBMC); test: MTT assay, cytotoxicity in peripheral blood mononuclear cells; format: cell-based, human; settings: up to 100 μM, 24 hours, FIG. 3
Method: The effects of the composition of the present invention on the cytotoxicity in immune cells (T cells, B cells, macrophages, monocytes, etc.) obtained from human blood were examined. The blood was obtained from healthy volunteers and PBMC from the blood by mechanical aggregation method. And mononuclear cells containing T cells, B cells, macrophages and monocytes were isolated from single cells by density gradient centrifugation method using Ficoll Hypaque. Briefly, single cells were treated with PBS and overlayed on Ficoll Hypaque and centrifuged at 1500 rpm for 30 min. After centrifugation, the cells around the boundary of the Ficoll-Hapaque were collected and washed three times with PBS. […] And RPMI with 10% of serum was used as a medium. The isolated cells were cultured for 24 hours in the presence of 1, 10, 50 and 100 μM of NAPS, TAPS, and PS to examine the effect of cytotoxicity, i.e. the degree of proliferation of the cells. C2-ceramide was used as control.

[6] = system: Th1 cells activation; test: Mixed leukocyte reaction (MLR), Th1 cells activation by TNBSO3, MTT assay; format: cell-based, mice; settings: MLR with TNBSO3-conjugated stimulator cells, FIG. 4
Method: Whether the composition of the present invention has a suppressive effect on the Th1 cells activation which isolate […], IL-12, etc. by reacting with TNBSO3 […] was examined.
The mononuclear cells obtained from spleen of mice as described the above 4 were used for responder cells, and TNBSO3-conjugated cells were used for stimulator cells. The stimulator cells were obtained as follows:
The mononuclear cells were adjusted to be 2×10^7 cells/ml in PBS and the same volume of 20 mM TNBSO3 was added and incubated at 37° C. for 10 min in the dark state. After incubation, the cells wrer washed three times with PBS.
(§3) Each 2×10^5 responder cells and stimulator cells were mixed with each other and cultured for 5 days on the 96-well plate. And RPMI with 10% of serum was used as a medium.
(§4) The above cells were cultured for 24 hours in the presence of 1, 10, 50 and 100 μM of NAPS, TAPS, and PS to examine the proliferation of the cells.
(§5) C2-ceramide was used as control.

[7] = system: Th1 cells activation against allogenic cells (PBMC); test: Reactions among allogenic cells, Th1 cells activation, MTT assay; format: cell-based, human; settings: 50 μM, FIG. 5
From the text: Whether the composition of the present invention has a suppressive effect on the Th1 cells activation by allogenic cells in immune reation was examined.
PBMC obtained from different volunteers as described in the above 5 were used for responder cells and stimulator cells respectively. PBMC for stimulator cells were used after X-ray irradiation (3000 rad) to inhibit the proliferation of stimulator cells.
as §3, §4, §5

[8] = system: HaCaT cells human keratinocyte cell line; test: MTT assay, combined administration with Vit D3 or calcipotriol; format: cell-based; settings: 24 hours; for Cell viability: HaCaT, in %
Method: In order to study the synergistic effect in the cytotoxicity when the compositions of the present invention are administered in combination with Vit D3 or calcipotriol, the cell viability is analyzed by MTT assay method in HaCaT cells human keratinocyte cell line.
To HaCaT cells, 1 μM of Vit D3 or calcipotriol, or 10 μM each of NAPS and TAPS, is administered singly or in combination with each other, and they are cultured for 24 hours. And the effects of these drugs on the cytotoxicity according to the single or combined administration are observed by MTT assay. C2-ceramide is used for comparison.

[9] = system: caspase-3; test: Immunoblot analysis of active caspase-3; format: cell-based, human; settings: HaCaT, FIG. 11
Method: In the confirmation of apoptosis-related proteins, the immunoblot analysis is performed in order to look into the effects of the compositions of the present invention on the expression of caspase-3, p53, and Chk1 proteins related to the induction of apoptosis.
HaCaT cells are cultured on a 100-mm dish and collected at the indicative time. The proteins are extracted by adding 500 μl of RIPA lysis buffer (1% Nonidet P-40, 1% sodium deoxycholate, 0.1% SDS, […], 0.01 M sodium phosphate, pH 7.2, 2 mM EDTA, 50 mM sodium fluoride and 0.2 mM sodium vanadate), and the concentration is measured by using the Bradford method. 1
Extracted proteins is electrophoresed on 12% polyacrylamide gel, and they are transferred to the nitrocellulose membrane. The membrane blocked with 5% non-fat milk is reacted with the primary antibodies (caspase-3, p53, and Chk1), washed, and reacted with the secondary HRP-conjugated antibody. The intensity of proteins is analyzed by using the ECL kit.

[10] = system: HaCaT cells; test: MTT assay, combined treatment with UVB irradiation; format: cell-based, human; parameters: Cell viability: unit not given here; settings: HaCaT
Method: In order to study the synergistic effect in the cytotoxicity by the cotreatment with administration of the compositions of the present invention and with UVB irradiation, the cell viability is analyzed by MTT assay method in HaCaT cells. On a 100-mm dish, 1×10^6 HaCaT cells are seeded and cultured in DMEM containing 10% fetal bovine serum, 100 units/ml penicillin, and 100 μg/ml streptomycin for 48 hours. They are treated with trypsin, and 1-2×10^4 cells per well are seeded on a 96-well plate again by using a serum-free medium, which is removed after about 3 hours. HaCaT cells are washed with PBS three times, and 3.5 ml of PBS per plate is added. It is then irradiated with 200 J/m^2 of UVB. After irradiation, the medium is replaced with a DMEM medium. Then it is treated with the phytosphingosine derivatives of the present invention, and cultured for 24 hours. After 2 mg/ml of the MTT reagent is added, it is cultured for 4 hours. The medium is removed completely, the cells are suspended in DMSO, and O.D. is measured at 540 nm.

CCCCCCCCCCCCC/C=C/[C@@H](O)[C@H](CO)NC(C)=O [C2-ceramide, reference compound] gave a Cell viability ([1]; 1 µM) of 97 ± 3.8, a Cell viability ([1]; 3 µM) of 98 ± 2.5 and a Cell viability ([1]; 10 µM) of 75 ± 1.3. The Cell viability ([1]; 30 µM) was 33 ± 0.6, the Cell viability ([2]; 3 µM) was 113 ± 19.8 and the Cell viability ([2]; 10 µM) was 97 ± 14.7. It also gave a Cell viability ([2]; 30 µM) of 82 ± 1.4, a Cell viability ([2]; 50 µM) of 74 ± 12.8 and a Cell viability ([3]; 3.5 µM) of 90 ± 11.6. The Cell viability ([3]; 7 µM) was 60 ± 7.7, the Cell viability ([3]; 15 µM) was 61 ± 8.4 and the Cell viability ([3]; 30 µM) was 34 ± 2.3. The IC50 [4] was roughly 75 µM, the “cytotoxicity to PBMC” value [5] was “did not show the cytotoxicity” and the “concentration showing a suppressive effect on Th1 cells activation” value [6] was 50 µM. For the same compound, the “suppressive effect on Th1 cells activation against allogenic cells” value [7] was “almost no suppressive effect”, the Cell viability ([8]; 10 μM combined with Vit D3 (1 μM)) was 71 ± 9 and the Cell viability ([8]; 10 μM combined with calcipotriol (1 μM)) was 70 ± 4. For the same compound, the Cell viability ([8]; 10 μM singly) was 78 ± 2, the “time to maximum active caspase-3” value ([9]; after treatment) was no more than 3 h and the “maximum increase of active caspase-3 (expression of induction)” value ([9]; immunoblot) was 2.5 folds.
In the case of CCCCCCCCCCCCCCC(O)C(O)C(CO)NC(=O)CCCCC (centres unmarked) [C6-PS, C6-phytosphingosine], the Cell viability ([1]; 1 µM) is reported as 84 ± 16.8, the Cell viability ([1]; 3 µM) is reported as 96 ± 7.2 and the Cell viability ([1]; 10 µM) is reported as 74 ± 10.1. The Cell viability ([1]; 30 µM) was 87 ± 1.3, the Cell viability ([2]; 3 µM) was 106 ± 9.7 and the Cell viability ([2]; 10 µM) was 61 ± 8.1. For the same compound, the Cell viability ([2]; 30 µM) was 57 ± 10.4 and the Cell viability ([2]; 50 µM) was 44 ± 9.6.
Compound CCCCCCCCCCCCCC[C@@H](O)[C@@H](O)[C@@H](N)CO.Cl [PS-HCl, phytosphingosine-HCl] has a Cell viability ([1]; human, 24 h, 1 µM) of 100 ± 4.1, a Cell viability ([1]; human, 24 h, 3 µM) of 101 ± 2.2 and a Cell viability ([1]; human, 24 h, 10 µM) of 79 ± 7.0. For the same compound, the Cell viability ([1]; human, 24 h, 30 μM) was 36 ± 6.8, the Cell viability ([2]; human, 24 h, 3 µM) was 105 ± 5.8 and the Cell viability ([2]; human, 24 h, 10 µM) was 109 ± 8.6. The Cell viability ([2]; human, 24 h, 30 μM) was 7 ± 1.6, the Cell viability ([2]; human, 24 h, 50 μM) was 2 ± 0.2 and the cytotoxicity ([2]; human, 24 h, 50 μM) was 95-98%. The Cell viability ([10]; 1 μM + UVB 200 J/m^2, 24 hours) was 39 ± 4.5, the Cell viability ([10]; 1 μM, no UVB, 24 hours) was 83 ± 7.9 and the Cell viability ([10]; 3 μM + UVB 200 J/m^2, 24 hours) was 24 ± 2.0. For the same compound, the Cell viability ([10]; 3 μM, no UVB, 24 hours) was 78 ± 10.0, the Cell viability ([10]; 5 μM + UVB 200 J/m^2, 24 hours) was 25 ± 1.9 and the Cell viability ([10]; 5 μM, no UVB, 24 hours) was 78 ± 6.7. For the same compound, the Cell viability ([10]; 10 μM + UVB 200 J/m^2, 24 hours) was 2 ± 0.5 and the Cell viability ([10]; 10 μM, no UVB, 24 hours) was 75 ± 8.2.
C=C1CC[C@H](O)C/C1=C/C=C1\CCC[C@]2(C)[C@@H]([C@H](C)CCCC(C)C)CC[C@@H]12 [Vit D3, vitamin D3, reference compound] showed a toxicity ([8]; 1 μM singly) of 19% and a Cell viability ([8]; 1 μM singly) of 81 ± 3.
For CLA-phytosphingosine [CLA-PS], the Cell viability ([1]; 1 µM) was 66 ± 7.8, the Cell viability ([1]; 3 µM) was 64 ± 9.9 and the Cell viability ([1]; 10 µM) was 58 ± 0.4. The Cell viability ([1]; 30 µM) was 55 ± 9.1, the Cell viability ([2]; 3 µM) was 91 ± 11.0 and the Cell viability ([2]; 10 µM) was 98 ± 12.9. It also gave a Cell viability ([2]; 30 µM) of 60 ± 6.2 and a Cell viability ([2]; 50 µM) of 65 ± 5.5.

— patent publication US20060166934A1, “Composition comprising phytosphingosine derivatives for apoptosis induction” (Tae-Yoon Kim, priority 2002, published 2006)
